Data: US20060052362A1, “Skeletal muscle protecting agent” (priority 2003, published 2006)
Where two headings read alike, the source gives them in different places.

Assays:
squalene synthase = target: T1, squalene synthase (Homo sapiens, UniProt P37268); settings: described in Test 1 of JP-A No. 9-136880; cited from earlier work
T1 sequence (P37268 1-417): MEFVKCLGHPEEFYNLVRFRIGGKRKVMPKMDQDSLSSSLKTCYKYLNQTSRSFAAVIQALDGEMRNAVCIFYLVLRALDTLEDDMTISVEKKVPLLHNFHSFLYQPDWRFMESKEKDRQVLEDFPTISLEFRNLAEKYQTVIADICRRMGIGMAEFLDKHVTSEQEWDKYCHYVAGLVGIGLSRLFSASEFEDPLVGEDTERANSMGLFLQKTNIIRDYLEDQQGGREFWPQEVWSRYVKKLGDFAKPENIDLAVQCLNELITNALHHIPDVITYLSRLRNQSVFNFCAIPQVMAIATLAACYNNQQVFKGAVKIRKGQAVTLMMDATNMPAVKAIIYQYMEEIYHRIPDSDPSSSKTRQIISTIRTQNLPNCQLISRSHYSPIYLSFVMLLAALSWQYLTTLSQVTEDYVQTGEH

[1] = test system: geranylgeraniol (GGOH) content in soleus muscle; assay: Increasing effect on geranylgeraniol (GGOH) content in soleus muscle; assay type: in vivo; settings: male SD rat, Mean ± SE (N = 4)
Method: Increasing Effect on Geranylgeraniol (GGOH) Content in Soleus Muscle
To 6 week-old male SD rat (4 per group) was orally administered forcedly by means of a stomach sonde a vehicle or Test compounds 1 or 2 at a dose of 10 mL/kg once a day for 14 days so as to be in an amount of 40 or 200 mg/kg. In the next morning of the 14th administration, the rat was killed under ether anesthesia. Immediately, the soleus muscle was collected and frozen on a dry ice, and then kept at −80° C. Later, to the muscle homogenate was added phosphatase for dephosphorylation, and then the concentration of geranylgeraniol (sum total of geranylgeranyl pyrophosphate and geranylgeraniol) in the muscle was determined with LC/MS/MS (Table 1).

[2] = test system: Human normal skeletal muscle cells; assay: Effect of Test compound 3 on cytotoxicity of HMG-CoA reductase inhibitor (2), pretreatment 1 day; assay type: cell-based
Method: Effect of Test Compound 3 on Cytotoxicity of HMG-CoA Reductase Inhibitor (2)
The drug in Treatment 1 was added and after 1 day, the medium was completely removed.

[3] = test system: Human normal skeletal muscle cells; assay: Effect of Test compound 3 on cytotoxicity of HMG-CoA reductase inhibitor (1), drugs added at the same time; assay type: cell-based; settings: 3 days
Excerpt: Effect of Test Compound 3 on Cytotoxicity of HMG-CoA Reductase Inhibitor (1)

[4] = test system: Human normal skeletal muscle cells; settings: for The number of the live cells (% of Group 1): 3 days
[5] = 40 mg/kg oral once a day for 14 days
[6] = 200 mg/kg oral once a day for 14 days
[7] = single drug 10 μM, other treatment vehicle, Mean ± SE (N = 3)

COc1cccc([C@H]2O[C@H](CC(=O)Nc3cccc(CCC(=O)O)c3)C(=O)N(CC(C)(C)CO)c3ccc(Cl)cc32)c1OC [Test compound 2, 3-[3-[[[(3R,5S)-7-chloro-5-(2,3-dimethoxyphenyl)-1-(3-hydroxy-2,2-dimethylpropyl)-2-oxo-1,2,3,5-tetrahydro-4,1-benzoxazepin-3-yl]acetyl]amino]phenyl]propionic acid]
inhibitory activity against squalene synthase (squalene synthase): has inhibitory activity against squalene synthase
GGOH content in the soleus muscle [1, 5]: 0.225 ± 0.019 μg/g soleus muscle
GGOH content in the soleus muscle [1, 6]: 0.255 ± 0.006 μg/g soleus muscle

CC(C)c1c(C(=O)Nc2ccccc2)c(-c2ccccc2)c(-c2ccc(F)cc2)n1CC[C@@H](O)C[C@@H](O)CC(=O)O [Atorvastatin, atorvastatin, reference compound]
The number of the live cells (% of Group 1) ([2]; vehicle 1 day, then Atorvastatin 10 μM 3 days): 57 ± 1.1 % of Group 1
The number of the live cells (% of Group 1) ([2]; vehicle 1 day, then Atorvastatin 100 μM 3 days): 35 ± 1.9 % of Group 1
The number of the live cells (% of Group 1) ([3]; Atorvastatin 100 μM alone (Treatment 1 vehicle)): 34 ± 0.6 % of Group 1
The number of the live cells (% of Group 1) [4, 7]: 52.0 ± 0.9 % of Group 1

CC(C)=CCC/C(C)=C/CC/C(C)=C/CC/C(C)=C/COP(=O)(O)OP(=O)(O)O [GGPP, geranylgeranyl pyrophosphate]
The number of the live cells (% of Group 1) ([4]; GGPP 10 μM added together with Atorvastatin 10 μM): 67.8 ± 1.3$ % of Group 1
The number of the live cells (% of Group 1) ([4]; GGPP 10 μM added together with Simvastatin 10 μM): 72.3 ± 1.6 % of Group 1
The number of the live cells (% of Group 1) [4, 7]: 93.5 ± 0.8 % of Group 1
activity reducing cytotoxicity in skeletal muscle cells (in words) ([4]; summary of Table 2): had an activity reducing cytotoxicity in skeletal muscle cells

CCC(C)(C)C(=O)O[C@H]1C[C@@H](C)C=C2C=C[C@H](C)[C@H](CC[C@@H]3C[C@@H](O)CC(=O)O3)[C@H]21 [Simvastatin, simvastatin]
The number of the live cells (% of Group 1) [4, 7]: 46.2 ± 1.5 % of Group 1

COc1cccc([C@H]2O[C@H](CC(=O)N3CCC(CC(=O)O)CC3)C(=O)N(CC(C)(C)COC(C)=O)c3ccc(Cl)cc32)c1OC [Test compound 1, N-[[(3R,5S)-1-(3-acetoxy-2,2-dimethylpropyl)-7-chloro-5-(2,3-dimethoxyphenyl)-2-oxo-1,2,3,5-tetrahydro-4,1-benzoxazepin-3-yl]acetyl]piperidine-4-acetic acid]
GGOH content in the soleus muscle [1, 5]: 0.224 ± 0.017 μg/g soleus muscle
GGOH content in the soleus muscle [1, 6]: 0.255 ± 0.027 μg/g soleus muscle

COc1cccc([C@H]2O[C@H](CC(=O)N3CCC(CC(=O)O)CC3)C(=O)N(CC(C)(C)CO)c3ccc(Cl)cc32)c1OC [Test compound 3, N-[[(3R,5S)-7-chloro-5-(2,3-dimethoxyphenyl)-1-(3-hydroxy-2,2-dimethylpropyl)-2-oxo-1,2,3,5-tetrahydro-4,1-benzoxazepin-3-yl]acetyl]piperidine-4-acetic acid]
The number of the live cells (% of Group 1) ([2]; Test compound 3 10 μM for 1 day, medium removed, then Atorvastatin 10 μM 3 days): 76 ± 1.8 % of Group 1
The number of the live cells (% of Group 1) ([2]; Test compound 3 10 μM for 1 day, medium removed, then Atorvastatin 100 μM 3 days): 45 ± 0.2 % of Group 1
The number of the live cells (% of Group 1) ([2]; Test compound 3 10 μM for 1 day, medium removed, then vehicle 3 days, Mean ± SE (N = 3)): 98 ± 2.3 % of Group 1
inhibitory activity against squalene synthase (squalene synthase): has inhibitory activity against squalene synthase
The number of the live cells (% of Group 1) ([3]; Test compound 3 10 μM added at the same time as Atorvastatin 100 μM): 42 ± 0.5 % of Group 1
The number of the live cells (% of Group 1) ([3]; Test compound 3 10 μM alone (Treatment 2 vehicle), Mean ± SE (N = 3)): 96 ± 1.2 % of Group 1
